Source: patent publication US10947202B2, “Sodium ion channel inhibitors and pharmaceutically acceptable salts and polymorphs thereof and uses thereof” (SHANGHAI HAIYAN PHARMACEUTICAL TECHNOLOGY CO., LTD., priority 2017, dated 2021)
In brackets after ≈: the same amount, converted by molar mass.

What was measured:
Format in all cases: physicochemical
[1] = Stability experiment (storage of crystal forms, HPLC)
Method: High performance liquid chromatography spectrum was acquired on an Agilent 1260 HPLC, the specific instrument and test parameters are shown in the table 18 below.
Another set of samples were sealed at 5° C. and kept as a control at the same time. […]

[2] = Solubility experiment; settings: for Solubility (mg/mL) 0.1M HCl / Solubility (mg/mL) H2O: room temperature; for Solubility (mg/mL) pH6.8: buffer pH 6.8, room temperature; for Solubility (mg/mL) H2O: water
Method: The solubility of crystal forms A, D, E-1, E-3, F and free base sample in buffer of 0.1M HCl, pH 4.5, pH 6.8 and water was tested at room temperature. In the test, the standard curves of free base sample and five crystal forms were plotted. Subsequently, 6 mg of API and five crystal form samples were weighed, respectively, and 2 ml of the solvent was added, the mixture was shaken at room temperature for 4 h, then ultrasonicated for 30 min, centrifuged, and the supernatant was taken out, filtered through a 0.45 μm filter and injected, and the solubility was measured, the results are shown in Table 28 (concentration is in mg/ml).

[3] = Hygroscopicity experiment (DVS)
From the text: The Dynamic Vapor Sorption (DVS) curve was acquired on the DVS Intrinsic of Surface Measurement Systems.
The DVS results for crystal forms A, D, E-3 and F are shown in FIG. 1E, FIG. 4F, FIG. 7E and FIG. 8E, respectively.

[4] = Crystal form stability on shaking in solvent or heating (XRPD); settings: for crystal form after shaking of mixed forms: crystal forms III and IV mixed in ACE and MeOH, shaken at 50° C. for 1 day
Method: The reaction solution in the step 4 of Example 1 was poured into water, extracted with ethyl acetate, dried and concentrated, ethanol was added to dissolve and the solution was evaporated, 1N hydrochloric acid and ethyl acetate were added and stirred for 1-2 h, filtered, a solid product which was the crystal form III of free base was obtained, the X-ray powder diffraction pattern is shown in FIG. 11A (the 2θ angle has been marked), the DSC/TGA/DVS patterns are shown in FIGS. 11B, 11C and 11D. According to the DSC pattern, there is an inflection point around 100° C., and the sample has a melting absorption peak at 181.9° C. […] The sample was shaken in ACE and MeOH at 50° C. for 1 day, and the crystal form was unchanged.
The reaction solution in the step 4 of Example 1 was poured into water, extracted with ethyl acetate, dried and concentrated to retain a small amount of ethyl acetate, 1N hydrochloric acid was added and stirred for 1 h, filtered, the filter cake was washed with ethanol and then filtered to obtain a solid product which was the crystal form IV of free base was obtained. The X-ray powder diffraction pattern is shown in FIG. 12A (the […] has been marked), the DSC/TGA/DVS patterns are shown in FIGS. 12B, 12C and 12D. […] The sample was shaken in ACE at 50° C. for 1 day, and the crystal form was unchanged. […]

[5] = 5° C. 0 d, — = below detection limit
[6] = 40° C. 75% RH 14 d, — = below detection limit
[7] = 60° C. 7 d, — = below detection limit
[8] = 60° C. 21 d, — = below detection limit
[9] = buffer pH 4.5, room temperature

Compound	RRT (%) 0.86 ([1]; 5° C. 0 d)	RRT (%) 1.00 ([1]; 5° C. 0 d)	RRT (%) 1.05 ([1]; 5° C. 0 d)	Total impurities (%) ([1]; 5° C. 0 d)	Content (%) ([1]; 40° C. 75% RH 14 d)	RRT (%) 1.00 ([1]; 40° C. 75% RH 14 d)	RRT (%) 1.05 ([1]; 40° C. 75% RH 14 d)	Total impurities (%) ([1]; 40° C. 75% RH 14 d)	Content (%) ([1]; 60° C. 7 d)	RRT (%) 0.86 ([1]; 60° C. 7 d)	RRT (%) 1.00 ([1]; 60° C. 7 d)	RRT (%) 1.05 ([1]; 60° C. 7 d)	Total impurities (%) ([1]; 60° C. 7 d)	Content (%) ([1]; 60° C. 21 d)	RRT (%) 1.00 ([1]; 60° C. 21 d)	RRT (%) 1.05 ([1]; 60° C. 21 d)	Solubility (mg/mL) 0.1M HCl [2]	Solubility (mg/mL) pH6.8 [2]	Solubility (mg/mL) H2O [2]	hygroscopicity (DVS curve) [3]	also measured
Cc1cc(N2CCN(Cc3cc(F)c(C(=O)NS(=O)(=O)C4CC4)cc3Cl)CC2)ccc1Cl [crystal form A, 5-chloro-4-((4-(4-chloro-3-methylphenyl)piperazin-1-yl)methyl)-N-(cyclopropylsulfonyl)-2-fluorobenzamide]	0.05%	99.84%	0.04%	0.16%	99.8%	99.83%	0.02%	0.17%	98.6%	0.05%	99.84%	0.02%	0.16%	97.6%	99.82%	0.03%	0.011 mg/mL (≈ 22 µM)	0.01 mg/mL	0.005 mg/mL (≈ 9.99 µM)	slightly hygroscopic	RRT (%) 0.79 [1, 5]: 0.07%; RRT (%) 0.79 [1, 6]: 0.07%; RRT (%) 0.88 [1, 6]: 0.04%; RRT (%) 0.79 [1, 7]: 0.08%; Total impurities (%) ([1]; 60° C. 21 d): 0.18%; RRT (%) 0.79 [1, 8]: 0.07%; RRT (%) 0.86 [1, 8]: 0.02%; RRT (%) 0.88 [1, 8]: 0.05%; Solubility (mg/mL) pH4.5 [2, 9]: 0.001 mg/mL; moisture absorbed (DVS) ([3]; at 95% RH): 0.4%
Cc1cc(N2CCN(Cc3cc(F)c(C(=O)NS(=O)(=O)C4CC4)cc3Cl)CC2)ccc1Cl [crystal form D, 5-chloro-4-((4-(4-chloro-3-methylphenyl)piperazin-1-yl)methyl)-N-(cyclopropylsulfonyl)-2-fluorobenzamide]	0.03%	99.90%	0.03%	0.11%	100.2%	99.90%	0.03%	0.09%	98.9%	0.03%	99.90%	0.03%	0.11%	99.1%	99.91%	0.03%	0.018 mg/mL (≈ 36 µM)	0.016 mg/mL	0.005 mg/mL (≈ 9.99 µM)	almost no hygroscopicity	RRT (%) 0.79 [1, 5]: 0.04%; RRT (%) 0.79 [1, 6]: 0.04%; RRT (%) 0.88 [1, 6]: 0.02%; RRT (%) 0.79 [1, 7]: 0.04%; Total impurities (%) ([1]; 60° C. 21 d): 0.09%; RRT (%) 0.79 [1, 8]: 0.04%; RRT (%) 0.88 [1, 8]: 0.02%; Solubility (mg/mL) pH4.5 [2, 9]: 0.002 mg/mL; moisture absorbed (DVS) ([3]; at 95% RH): 0.07%
Cc1cc(N2CCN(Cc3cc(F)c(C(=O)NS(=O)(=O)C4CC4)cc3Cl)CC2)ccc1Cl [crystal form E-1, 5-chloro-4-((4-(4-chloro-3-methylphenyl)piperazin-1-yl)methyl)-N-(cyclopropylsulfonyl)-2-fluorobenzamide]																	0.019 mg/mL (≈ 38 µM)	0.035 mg/mL	>2.669 mg/mL		Solubility (mg/mL) pH4.5 [2, 9]: 0.002 mg/mL
Cc1cc(N2CCN(Cc3cc(F)c(C(=O)NS(=O)(=O)C4CC4)cc3Cl)CC2)ccc1Cl [crystal form E-3, 5-chloro-4-((4-(4-chloro-3-methylphenyl)piperazin-1-yl)methyl)-N-(cyclopropylsulfonyl)-2-fluorobenzamide]	0.08%	99.79%	0.06%	0.26%	106.4%	99.71%	0.04%	0.29%	99.5%	0.08%	99.78%	0.06%	0.22%	105.1%	99.71%	0.04%	0.016 mg/mL (≈ 32 µM)	0.096 mg/mL	>2.780 mg/mL	has hygroscopicity	RRT (%) 0.54 [1, 5]: 0.13%; RRT (%) 0.54 [1, 6]: 0.09%; RRT (%) 0.86 [1, 6]: 0.07%; RRT (%) 0.54 [1, 7]: 0.09%; Total impurities (%) ([1]; 60° C. 21 d): 0.30%; RRT (%) 0.54 [1, 8]: 0.08%; RRT (%) 0.86 [1, 8]: 0.07%; solubility at 4 h ([2]; buffer pH 4.5, pH 4.5, aqueous buffer, thermodynamic from solid, buffer pH 4.5, room temperature, read-out: Solubility (mg/mL) pH4.5): 0.002 mg/mL (≈ 4 µM); moisture absorbed (DVS) ([3]; when RH is 85%): 2%
Cc1cc(N2CCN(Cc3cc(F)c(C(=O)NS(=O)(=O)C4CC4)cc3Cl)CC2)ccc1Cl [crystal form F, 5-chloro-4-((4-(4-chloro-3-methylphenyl)piperazin-1-yl)methyl)-N-(cyclopropylsulfonyl)-2-fluorobenzamide]	0.05%	99.86%	0.03%	0.14%	98.4%	99.90%	0.04%	0.10%	99.7%	0.03%	99.87%	0.04%	0.13%	101.0%	99.80%	0.03%	0.017 mg/mL (≈ 34 µM)	0.050 mg/mL	>3.154 mg/mL	has hygroscopicity	RRT (%) 0.79 [1, 5]: 0.06%; RRT (%) 0.79 [1, 6]: 0.04%; RRT (%) 0.79 [1, 7]: 0.06%; Total impurities (%) ([1]; 60° C. 21 d): 0.20%; RRT (%) 0.79 [1, 8]: 0.05%; RRT (%) 0.86 [1, 8]: 0.03%; RRT (%) 0.88 [1, 8]: 0.02%; Solubility (mg/mL) pH4.5 [2, 9]: 0.002 mg/mL; moisture absorbed (DVS) ([3]; when RH is 85%): 4%
Cc1cc(N2CCN(Cc3cc(F)c(C(=O)NS(=O)(=O)C4CC4)cc3Cl)CC2)ccc1Cl [crystal form I, 5-chloro-4-((4-(4-chloro-3-methylphenyl)piperazin-1-yl)methyl)-N-(cyclopropylsulfonyl)-2-fluorobenzamide]																				slightly hygroscopic	stability of the crystal form (assessment in words) [4]: good stability
Cc1cc(N2CCN(Cc3cc(F)c(C(=O)NS(=O)(=O)C4CC4)cc3Cl)CC2)ccc1Cl [crystal form II, 5-chloro-4-((4-(4-chloro-3-methylphenyl)piperazin-1-yl)methyl)-N-(cyclopropylsulfonyl)-2-fluorobenzamide]																				hygroscopic	
Cc1cc(N2CCN(Cc3cc(F)c(C(=O)NS(=O)(=O)C4CC4)cc3Cl)CC2)ccc1Cl [crystal form III, 5-chloro-4-((4-(4-chloro-3-methylphenyl)piperazin-1-yl)methyl)-N-(cyclopropylsulfonyl)-2-fluorobenzamide]																				slightly hygroscopic	stability of the crystal form (assessment in words) [4]: metastable crystal form; crystal form after shaking of mixed forms [4]: converted into crystal form I; crystal form after shaking ([4]; shaken in ACE and MeOH at 50° C. for 1 day): unchanged
Cc1cc(N2CCN(Cc3cc(F)c(C(=O)NS(=O)(=O)C4CC4)cc3Cl)CC2)ccc1Cl [crystal form IV, 5-chloro-4-((4-(4-chloro-3-methylphenyl)piperazin-1-yl)methyl)-N-(cyclopropylsulfonyl)-2-fluorobenzamide]																				slightly hygroscopic	stability of the crystal form (assessment in words) [4]: metastable crystal form; crystal form after shaking of mixed forms [4]: converted into crystal form I; crystal form after shaking ([4]; shaken in ACE at 50° C. for 1 day): unchanged
Cc1cc(N2CCN(Cc3cc(F)c(C(=O)NS(=O)(=O)C4CC4)cc3Cl)CC2)ccc1Cl [crystal form V, 5-chloro-4-((4-(4-chloro-3-methylphenyl)piperazin-1-yl)methyl)-N-(cyclopropylsulfonyl)-2-fluorobenzamide]																				slightly hygroscopic	crystal form after heating ([4]; heated to 150° C.): converted into crystal form I
